Test results from PubChem BioAssay (NCI).
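These data come from cells grown in 96-well plates and exposed to compound for 48 hours at five concentrations. GI50: concentration for 50% inhibition of growth. TGI denotes the concentration required for complete inhibition of growth.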

Experiments:
Test in all cases: DTP human tumour cell line panel, 48 h
[1] = test system: TK-10 renal
[2] = test system: OVCAR-3 ovarian
[3] = test system: IGROV1 ovarian
[4] = test system: HS 578T breast
[5] = test system: HL-60(TB) leukemia
[6] = test system: MCF7 breast
[7] = test system: HT29 colon
[8] = test system: UACC-257 melanoma
[9] = test system: COLO 205 colon
[10] = test system: NCI-H522 lung
[11] = test system: SK-MEL-2 melanoma
[12] = test system: KM12 colon
[13] = test system: NCI-H460 lung
[14] = test system: SF-295 CNS
[15] = test system: SNB-19 CNS
[16] = test system: SK-MEL-5 melanoma
[17] = test system: MALME-3M melanoma
[18] = test system: CCRF-CEM leukemia
[19] = test system: A498 renal
[20] = test system: M14 melanoma
[21] = test system: HCT-116 colon
[22] = test system: SN12C renal
[23] = test system: DU-145 prostate
[24] = test system: U251 CNS
[25] = test system: OVCAR-8 ovarian
[26] = test system: HCT-15 colon
[27] = test system: A549 NSCLC
[28] = test system: MDA-MB-231 breast
[29] = test system: RPMI-8226 leukemia
[30] = test system: LOX IMVI melanoma
[31] = test system: OVCAR-5 ovarian
[32] = test system: K-562 leukemia
[33] = test system: BT-549 breast
[34] = test system: NCI-H23 lung
[35] = test system: SF-268 CNS
[36] = test system: SW-620 colon
[37] = test system: SR leukemia
[38] = test system: MDA-MB-468 breast
[39] = test system: SK-MEL-28 melanoma
[40] = test system: MOLT-4 leukemia
[41] = test system: HOP-92 NSCLC
[42] = test system: UACC-62 melanoma
[43] = test system: SK-OV-3 ovarian
[44] = test system: PC-3 prostate
[45] = test system: SF-539 CNS
[46] = test system: MDA-MB-435
[47] = test system: RXF 393 renal
[48] = test system: EKVX NSCLC
[49] = test system: 786-0 renal
[50] = test system: OVCAR-4 ovarian
[51] = test system: T-47D breast
[52] = test system: NCI-H226 lung
[53] = test system: SNB-75 CNS
[54] = test system: HCC-2998 colon
[55] = test system: UO-31 renal
[56] = test system: CAKI-1 renal
[57] = test system: HOP-62 NSCLC
[58] = test system: ACHN renal

SMILES: O=C(/C=C/c1cccc(OCc2ccc(F)cc2)c1)c1nc2ccccc2[nH]1
- GI50 [1]: 35.1 µM
- TGI [1]: > 100 µM
- GI50 [2]: 13.4 µM
- TGI [2]: 37.6 µM
- GI50 [3]: 21.9 µM
- TGI [3]: 66.6 µM
- GI50 [4]: 25.9 µM
- TGI [4]: 95.7 µM
- GI50 [5]: 19.5 µM
- TGI [5]: 62.4 µM
- GI50 [6]: 4.52 µM
- TGI [6]: 32.5 µM
- GI50 [7]: 18.4 µM
- TGI [7]: 40.1 µM
- GI50 [8]: 66.2 µM
- TGI [8]: > 100 µM
- GI50 [9]: 39.8 µM
- TGI [9]: > 100 µM
- GI50 [10]: 27.5 µM
- TGI [10]: > 100 µM
- GI50 [11]: 81.3 µM
- TGI [11]: > 100 µM
- GI50 [12]: 13.5 µM
- TGI [12]: 65.9 µM
- GI50 [13]: 34.8 µM
- TGI [13]: > 100 µM
- GI50 [14]: 32.7 µM
- TGI [14]: > 100 µM
- GI50 [15]: 25.3 µM
- TGI [15]: > 100 µM
- GI50 [16]: 31.7 µM
- TGI [16]: > 100 µM
- GI50 [17]: 69.4 µM
- TGI [17]: > 100 µM
- GI50 [18]: 10.9 µM
- TGI [18]: > 100 µM
- GI50 [19]: > 100 µM
- TGI [19]: > 100 µM
- GI50 [20]: 25.5 µM
- TGI [20]: 83.6 µM
- GI50 [21]: 11.9 µM
- TGI [21]: 31.4 µM
- GI50 [22]: 62.9 µM
- TGI [22]: > 100 µM
- GI50 [23]: 29.5 µM
- TGI [23]: > 100 µM
- GI50 [24]: 13.5 µM
- TGI [24]: 35.7 µM
- GI50 [25]: 34.4 µM
- TGI [25]: > 100 µM
- GI50 [26]: 13 µM
- TGI [26]: 28.6 µM
- GI50 [27]: 65.1 µM
- TGI [27]: > 100 µM
- GI50 [28]: 18.4 µM
- TGI [28]: 47.8 µM
- GI50 [29]: 3090 nM
- TGI [29]: 10.8 µM
- GI50 [30]: 11.4 µM
- TGI [30]: 25.4 µM
- GI50 [31]: 29.3 µM
- TGI [31]: > 100 µM
- GI50 [32]: 8.34 µM
- TGI [32]: 78.8 µM
- GI50 [33]: 18.4 µM
- TGI [33]: 46.4 µM
- GI50 [34]: 20.5 µM
- TGI [34]: 57.1 µM
- GI50 [35]: 37.7 µM
- TGI [35]: > 100 µM
- GI50 [36]: 12.2 µM
- TGI [36]: 34.3 µM
- GI50 [37]: 4.68 µM
- TGI [37]: > 100 µM
- GI50 [38]: 15 µM
- TGI [38]: 32.3 µM
- GI50 [39]: 21.9 µM
- TGI [39]: 61.2 µM
- GI50 [40]: 21.9 µM
- TGI [40]: > 100 µM
- GI50 [41]: 8.64 µM
- TGI [41]: 67.5 µM
- GI50 [42]: 18.7 µM
- TGI [42]: > 100 µM
- GI50 [43]: > 100 µM
- TGI [43]: > 100 µM
- GI50 [44]: 27.1 µM
- TGI [44]: > 100 µM
- GI50 [45]: 17.6 µM
- TGI [45]: 32.2 µM
- GI50 [46]: 21.2 µM
- TGI [46]: 59.9 µM
- GI50 [47]: 15 µM
- TGI [47]: 31.2 µM
- GI50 [48]: 41.3 µM
- TGI [48]: > 100 µM
- GI50 [49]: 18.5 µM
- TGI [49]: 45.9 µM
- GI50 [50]: 66.5 µM
- TGI [50]: > 100 µM
- GI50 [51]: 29.2 µM
- TGI [51]: > 100 µM
- GI50 [52]: 51 µM
- TGI [52]: > 100 µM
- GI50 [53]: 34.2 µM
- TGI [53]: > 100 µM
- GI50 [54]: 15.5 µM
- TGI [54]: 30 µM
- GI50 [55]: 13.4 µM
- TGI [55]: 29 µM
- GI50 [56]: 24.5 µM
- TGI [56]: > 100 µM
- GI50 [57]: 41.5 µM
- TGI [57]: > 100 µM
- GI50 [58]: 47 µM
- TGI [58]: > 100 µM

SMILES: CN1CCc2c(sc3ncnc(N/N=C/c4ccc(Cl)cc4Cl)c23)C1
- GI50 [1]: 2.53 µM
- TGI [1]: 6.36 µM
- GI50 [2]: 1.34 µM
- TGI [2]: 2.88 µM
- GI50 [3]: 6.89 µM
- TGI [3]: > 100 µM
- GI50 [4]: 3.18 µM
- TGI [4]: 27.3 µM
- GI50 [5]: 2.12 µM
- TGI [5]: 6.11 µM
- GI50 [6]: 2.36 µM
- TGI [6]: 14.7 µM
- GI50 [7]: 2.13 µM
- TGI [7]: 4.91 µM
- GI50 [8]: 2.86 µM
- TGI [8]: 9.96 µM
- GI50 [9]: 1.66 µM
- TGI [9]: 3.41 µM
- GI50 [10]: 3.38 µM
- TGI [10]: 13.3 µM
- GI50 [11]: 3.59 µM
- TGI [11]: 13.9 µM
- GI50 [12]: 4.3 µM
- TGI [12]: 25.7 µM
- GI50 [13]: 3.2 µM
- TGI [13]: 13.3 µM
- GI50 [14]: 2.3 µM
- TGI [14]: 8.18 µM
- GI50 [15]: 4.01 µM
- TGI [15]: > 100 µM
- GI50 [16]: 1.66 µM
- TGI [16]: 3.72 µM
- GI50 [17]: 1.9 µM
- TGI [17]: 3.94 µM
- GI50 [18]: 2.45 µM
- TGI [18]: 12.2 µM
- GI50 [19]: 3.22 µM
- TGI [19]: 12.3 µM
- GI50 [20]: 1.71 µM
- TGI [20]: 3.45 µM
- GI50 [21]: 3.04 µM
- TGI [21]: 11.4 µM
- GI50 [22]: 2.43 µM
- TGI [22]: 6.7 µM
- GI50 [23]: 6.47 µM
- TGI [23]: > 100 µM
- GI50 [24]: 1.92 µM
- TGI [24]: 4.31 µM
- GI50 [25]: 2.38 µM
- TGI [25]: 7.62 µM
- GI50 [26]: 2.95 µM
- TGI [26]: 13.7 µM
- GI50 [27]: 3.73 µM
- TGI [27]: 16.9 µM
- GI50 [28]: 1.93 µM
- TGI [28]: 4.71 µM
- GI50 [29]: 2510 nM
- TGI [29]: 11.8 µM
- GI50 [30]: 1.49 µM
- TGI [30]: 2.93 µM
- GI50 [31]: 2.84 µM
- TGI [31]: 11.2 µM
- GI50 [33]: 3.97 µM
- TGI [33]: 16 µM
- GI50 [34]: 2.81 µM
- TGI [34]: 10.7 µM
- GI50 [35]: 4.64 µM
- TGI [35]: > 100 µM
- GI50 [36]: 1.91 µM
- TGI [36]: 4.34 µM
- GI50 [37]: 2.27 µM
- TGI [37]: 9.19 µM
- GI50 [38]: 1.52 µM
- TGI [38]: 3.32 µM
- GI50 [39]: 2.04 µM
- TGI [39]: 5.37 µM
- GI50 [40]: 2.9 µM
- TGI [40]: 18.4 µM
- GI50 [41]: 1.95 µM
- TGI [41]: 5.96 µM
- GI50 [42]: 1.7 µM
- TGI [42]: 3.67 µM
- GI50 [43]: 3.04 µM
- TGI [43]: 12.5 µM
- GI50 [44]: 3.96 µM
- TGI [44]: > 100 µM
- GI50 [45]: 1.81 µM
- TGI [45]: 3.28 µM
- GI50 [46]: 2.11 µM
- TGI [46]: 5.44 µM
- GI50 [47]: 2.1 µM
- TGI [47]: 4.95 µM
- GI50 [48]: 10.8 µM
- TGI [48]: > 100 µM
- GI50 [49]: 1.77 µM
- TGI [49]: 3.26 µM
- GI50 [50]: 1.79 µM
- TGI [50]: 3.81 µM
- GI50 [51]: 2.1 µM
- TGI [51]: 6.59 µM
- GI50 [52]: 2.11 µM
- TGI [52]: 8.21 µM
- GI50 [53]: 1.54 µM
- TGI [53]: 4.2 µM
- GI50 [54]: 3.69 µM
- TGI [54]: 15.3 µM
- GI50 [55]: 1.47 µM
- TGI [55]: 2.83 µM
- GI50 [56]: 1.8 µM
- TGI [56]: 3.87 µM
- GI50 [57]: 3.34 µM
- TGI [57]: 16.9 µM
- GI50 [58]: 1.88 µM
- TGI [58]: 3.97 µM
